In patent US12398119B2, “Piperazine azaspiro derivatives” (PFIZER INC., priority 2018, dated 2025) one finds Emax and EC50 data, which are given here for 20 molecules.

The target of this experiment is T1, Human M4 mAChR (Homo sapiens, UniProt P08173).
T1 construct: host or cells: HEK293 (Sor-L9 HEK293 human/M4/GloSensor Cell Clone Number 40)
T1 sequence (P08173 1-479): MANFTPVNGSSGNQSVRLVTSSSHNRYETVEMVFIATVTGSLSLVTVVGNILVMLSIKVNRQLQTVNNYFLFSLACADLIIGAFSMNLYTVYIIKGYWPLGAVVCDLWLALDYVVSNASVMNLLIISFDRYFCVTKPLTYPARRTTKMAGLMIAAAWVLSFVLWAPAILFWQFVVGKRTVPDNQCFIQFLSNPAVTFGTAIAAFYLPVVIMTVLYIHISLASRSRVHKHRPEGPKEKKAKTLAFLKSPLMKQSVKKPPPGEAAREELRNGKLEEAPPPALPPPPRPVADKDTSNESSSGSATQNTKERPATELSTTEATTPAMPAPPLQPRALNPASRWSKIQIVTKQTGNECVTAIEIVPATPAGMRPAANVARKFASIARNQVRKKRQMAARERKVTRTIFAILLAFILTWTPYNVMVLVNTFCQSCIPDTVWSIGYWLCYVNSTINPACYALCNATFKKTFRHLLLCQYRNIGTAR
The experiment can be described thus: Muscarinic hM4 Agonist GloSensor cAMP Assay. In kind it is cell-based. How it is done: Muscarinic hM4 Agonist GloSensor cAMP Assay Methods
Compounds were prepared in advance of the assay. Test compounds were solubilized in 100% dimethyl sulfoxide (DMSO, Sigma D8418) to a concentration of 30 mM. A 10-point intermediate dilution series using half log dilutions was created in 100% DMSO with a top concentration of 4 mM. The serially diluted compounds were spotted as 200 nL/well in a 384-well plate (Matrix Catalog Number 4325). The final compound concentration range in the assay was […] to 0.3 nM with a final DMSO concentration of 0.25%.
Human M4 mAChR expressing stable cell lines were generated using a parental HEK cell expressing the GloSensor construct (Promega Sor-L9 HEK293 human/M4/GloSensor Cell Clone Number 40). The cells were grown in 90% Dulbecco's Modified Eagle Medium (DMEM, Gibco 11960), 10% fetal bovine serum (FBS, Hyclone CH.30160-03), 1% Penicillin/Streptomycin (Gibco 15070-063), 500 µg/mL Geneticin (Gibco 10131-027), 200 µg/mL Hygromycin B (Invitrogen 10687-010) and 1% Glutamax (Thermo Fisher 35050061).
One day prior to assay, the cells were lifted using dissociation buffer (Gibco 13151-014) and spun in a centrifuge at 250 times gravity for 5 minutes at room temperature. Supernatant was removed and the cell pellet was resuspended in growth media to a concentration of […]. Cells were then added to white poly-d-lysine coated plates (Becton Dickinson 356661) as 40 μL per well (25,000 cells) and incubated overnight (20-24 hours) in a 37° C. humidified incubator with 5% carbon dioxide (C02).
The following day, culture media was removed from the cell plates and replaced with […] equilibration medium containing 88% CO2-independent medium (Invitrogen 18045088), 10% FBS and 2% GloSensor cAMP reagent (Promega E1291) that had been warmed to 37° C. Plates were then covered and incubated for 2 hours at room temperature while protected from light.
To the previously prepared serially diluted compound plates, 200 nL of 4 mM ACh (Sigma A2661, 10 μM final) or 200 nL of 100% DMSO (0.25% final) was added to the positive and negative control wells, respectively. Compound plates were then diluted by adding 16 μL of C02-independent media containing 10% FBS and an EC80 concentration of isoproterenol (Sigma 16504). Prior to compound testing, concentration response curves were run for isoproterenol to determine the EC80 concentration. At the end of the 2 hour equilibration, 10 µL was transferred from the compound plates to the cell plates. The cell plates were incubated an additional 7 minutes at room temperature and then read using a Multi-label EnVision plate reader (Perkin Elmer) for luminescence.
The raw data, expressed as relative light units, was analyzed using Activity Base (IDBS). The percent effect at each compound concentration was calculated based on and relative to the amount of cAMP produced by the positive and negative control wells contained on each assay plate. The positive control wells contained an EC100 concentration of ACh and the negative control wells contained only DMSO. The concentration and % effect values were fit using a four-parameter logistic dose response equation, and the concentration required for 50% effect (EC50) was determined as well as the maximum asymptote of the concentration response curve to define the efficacy.

Setting [1] is: Emax: maximum asymptote of concentration response curve, relative to ACh positive control (EC100) and DMSO, geometric mean, read-out: % maximum effect.
[2] abbreviates: HEK293 human/M4/GloSensor cells, EC80 isoproterenol, geometric mean, number of determinations in parentheses, read-out: EC50.
Setting [3] is: enantiomers reported in footnotes to Table 1, number of determinations in parentheses, read-out: M4 EC50.
[4] abbreviates: enantiomers reported in footnotes to Table 1, number of determinations in parentheses, read-out: M4 Emax.

Read-outs that look alike come from different tables or passages of the source.

On to `CCOC(=O)N1CC2(CCC(N3CCN(c4ncccc4-c4ccc(NC(C)=O)cc4)CC3)C2)C1` (stereo not drawn) [Example 52, ethyl 6-(4-(3-(4-acetamidophenyl)pyridin-2-yl)piperazin-1-yl)-2-azaspiro[3.4]octane-2-carboxylate], for which, under setting [1], the Emax is 92%. Also, the concentration for a half-maximal effect (EC50) (usually the concentration at which the effect is half-maximal) under setting [2] was found to be 0.568 nM.
As for `CCOC(=O)N1CC2(CCC(N3CCN(c4ncccc4N4CC(C#N)C4)CC3)C2)C1` (stereo not drawn) [Example 30, ethyl 6-{4-[3-(3-cyanoazetidin-1-yl)pyridin-2-yl]piperazin-1-yl}-2-azaspiro[3.4]octane-2-carboxylate], the Emax under setting [1] was 70.3%. In addition, the concentration giving a half-maximal response (EC50) under setting [2] stood at 2.28 nM.
On the same counts, the results for `CCOC(=O)N1CC2(CC[C@@H](N3CCN(c4ncccc4-c4cnccn4)CC3)C2)C1` [Example 8, ethyl (6R)-6-{4-[3-(pyrazin-2-yl)pyridin-2-yl]piperazin-1-yl}-2-azaspiro[3.4]octane-2-carboxylate] are 98.7% and 2.23 nM.
Take `CCOC(=O)N1CC2(CC(N3CCN(c4ncccc4-c4cc(C)ns4)CC3)C2)C1` [Example 32, ethyl 6-{4-[3-(3-methyl-1,2-thiazol-5-yl)pyridin-2-yl]piperazin-1-yl}-2-azaspiro[3.3]heptane-2-carboxylate]: under setting [1], the Emax was determined as 84.3%. For the same molecule, under setting [2], the EC50 amounted to 27.8 nM.
The matching figures for `CCOC(=O)N1CC2(CC[C@@H](N3CCN(c4ncccc4-c4nncs4)CC3)C2)C1` [Example 5, ethyl (6R)-6-{4-[3-(1,3,4-thiadiazol-2-yl)pyridin-2-yl]piperazin-1-yl}-2-azaspiro[3.4]octane-2-carboxylate]: 46.4% and 1.6 nM.
On the same counts, the results for `CCOC(=O)N1CC2(CC(N3CCN(c4ncccc4-c4sncc4C)CC3)C2)C1` [Example 31, ethyl 6-{4-[3-(4-methyl-1,2-thiazol-5-yl)pyridin-2-yl]piperazin-1-yl}-2-azaspiro[3.3]heptane-2-carboxylate] are 101% and 13.5 nM.
Turning to `CCOC(=O)N1CC2(CC[C@@H](N3CCN(c4ncccc4OC)CC3)C2)C1` [Example 6, ethyl (6R)-6-[4-(3-methoxypyridin-2-yl)piperazin-1-yl]-2-azaspiro[3.4]octane-2-carboxylate], the Emax under setting [1] stood at 86.3%. The concentration for a half-maximal effect (EC50) under setting [2] was 1.57 nM.
Take `CCOC(=O)N1CC2(CCC(N3CCN(c4ncccc4-c4cnc(C#N)cn4)CC3)C2)C1` (single isomer, unassigned) [enantiomer of Example 41, ethyl 6-{4-[3-(5-cyanopyrazin-2-yl)pyridin-2-yl]piperazin-1-yl}-2-azaspiro[3.4]octane-2-carboxylate]: under setting [3], the 50% effective concentration (EC50) is 268 nM. The Emax under setting [4] is 52.7%.
On to `CCOC(=O)N1CC2(CCC(N3CCN(c4ncccc4-c4nccnc4C)CC3)C2)C1` (stereo not drawn) [Example 15, ethyl 6-{4-[3-(3-methylpyrazin-2-yl)pyridin-2-yl]piperazin-1-yl}-2-azaspiro[3.4]octane-2-carboxylate], for which, under setting [1], the Emax was 58.5%. In addition, the 50% effective concentration (EC50) under setting [2] was determined as 17.3 nM.
On the same counts, the results for `CCOC(=O)N1CCC2(CC(N3CCN(c4ncccc4OC)CC3)C2)C1` (stereo not drawn) [Example 12, ethyl 2-[4-(3-methoxypyridin-2-yl)piperazin-1-yl]-6-azaspiro[3.4]octane-6-carboxylate] are 95.2% and 23.3 nM.
On the same counts, the results for `CCOC(=O)N1CC2(CCC(N3CCN(c4ncccc4C)CC3)C2)C1` (single isomer, unassigned) [Example 21, ethyl 6-[4-(3-methylpyridin-2-yl)piperazin-1-yl]-2-azaspiro[3.4]octane-2-carboxylate] are 96.8% and 4.01 nM.
The matching figures for `CCOC(=O)N1CC2(CCC(N3CCN(c4ncc(F)cc4-c4cscn4)CC3)C2)C1` (single isomer, unassigned) [Example 26, ethyl 6-{4-[5-fluoro-3-(1,3-thiazol-4-yl)pyridin-2-yl]piperazin-1-yl}-2-azaspiro[3.4]octane-2-carboxylate]: 59.8% and 26.4 nM.
For the molecule `CCOC(=O)N1CC2(CCC(N3CCN(c4ncccc4-c4ccc(C#N)cc4)CC3)C2)C1` (stereo not drawn) [Example 53, ethyl 6-(4-(3-(4-cyanophenyl)pyridin-2-yl)piperazin-1-yl)-2-azaspiro[3.4]octane-2-carboxylate], the Emax under setting [1] was 97%. For the same molecule, the concentration for a half-maximal effect (EC50) under setting [2] was 1.75 nM.
As to `CCOC(=O)N1CC2(CCC(N3CCN(c4ncccc4-c4cnsn4)CC3)C2)C1` (single isomer, unassigned) [enantiomer of Example 34, ethyl 6-{4-[3-(1,2,5-thiadiazol-3-yl)pyridin-2-yl]piperazin-1-yl}-2-azaspiro[3.4]octane-2-carboxylate], the concentration for a half-maximal effect (EC50) under setting [3] is 347 nM. Also, the Emax under setting [4] is 72.3%.
`CCOC(=O)N1CC2(CC[C@@H](N3CCN(c4nccnc4N4CCOCC4)CC3)C2)C1` [Example 42, ethyl (6R)-6-{4-[3-(morpholin-4-yl)pyrazin-2-yl]piperazin-1-yl}-2-azaspiro[3.4]octane-2-carboxylate]: the Emax under setting [1] stood at 92.9%. For the same molecule, under setting [2], the EC50 was determined as 12.3 nM.
Consider `CCOC(=O)N1CC2(CCC(N3CCN(c4ncc(F)cc4-c4cscn4)CC3)C2)C1` (single isomer, unassigned) [enantiomer of Example 26, ethyl 6-{4-[5-fluoro-3-(1,3-thiazol-4-yl)pyridin-2-yl]piperazin-1-yl}-2-azaspiro[3.4]octane-2-carboxylate], for which, under setting [3], the half-maximal effective concentration (EC50) was determined as 152 nM. For the same molecule, the Emax under setting [4] was 67.1%.
As to `CCOC(=O)N1CC2(CC[C@@H](N3CCN(c4ncccc4-c4cnc(C)nc4)CC3)C2)C1` [Example 47, ethyl (6R)-6-{4-[3-(2-methylpyrimidin-5-yl)pyridin-2-yl]piperazin-1-yl}-2-azaspiro[3.4]octane-2-carboxylate], under setting [1], the Emax was 63.5%. Besides, the 50% effective concentration (EC50) under setting [2] was found to be 2.78 nM.
On to `CCOC(=O)N1CCC2(CC(N3CCN(c4ncccc4-c4ccc(C#N)cn4)CC3)C2)C1` (single isomer, unassigned) [enantiomer of Example 23, ethyl 2-[4-(5-cyano-2,3′-bipyridin-2′-yl)piperazin-1-yl]-6-azaspiro[3.4]octane-6-carboxylate], for which, under setting [3], the EC50 was above 10000 nM.
As for `CCOC(=O)N1CC2(CCC(N3CCN(c4ncccc4-c4ccnnc4)CC3)C2)C1` (stereo not drawn) [Example 17, ethyl 6-{4-[3-(pyridazin-4-yl)pyridin-2-yl]piperazin-1-yl}-2-azaspiro[3.4]octane-2-carboxylate], the Emax under setting [1] stood at 92.3%. Also, the EC50 under setting [2] is 4.41 nM.
The matching figures for `CCOC(=O)N1CC2(CC(N3CCN(c4ncccc4-c4cnccn4)CC3)C2)C1` [Example 35, ethyl 6-{4-[3-(pyrazin-2-yl)pyridin-2-yl]piperazin-1-yl}-2-azaspiro[3.3]heptane-2-carboxylate]: 94.2% and 304 nM.
